Active and inactive are the calls of the source.
Assays:
[1] = molecular target: Sphingosine 1-phosphate receptor 1 (Homo sapiens) (UniProt P21453); conditions: CHO, 1 uM
Description: Agonist activity at human S1P1 receptor expressed in CHO cells assessed as inhibition of forskolin-stimulated cAMP formation at 1 uM after 60 mins

[2] = molecular target: Sphingosine 1-phosphate receptor 1 (Homo sapiens) (UniProt P21453); conditions: CHO, 1 uM; remark: listed apart in the source
Description: Agonist activity at human S1P1 receptor expressed in CHO cells assessed as inhibition of forskolin-stimulated cAMP formation at 1 uM after 20 mins

[3] = molecular target: Sphingosine 1-phosphate receptor 1 (Homo sapiens) (UniProt P21453); assay: Induction of human S1P1 receptor internalization expressed in CHO cells pretreated at 1 uM for 1 hr measured after 5 hrs washout period; format: cell-based
[4] = molecular target: Sphingosine 1-phosphate receptor 1 (Homo sapiens) (UniProt P21453); assay: Induction of human S1P1 receptor internalization expressed in CHO cells at 1 uM after 60 mins; format: cell-based
[5] = molecular target: Sphingosine 1-phosphate receptor 1 (Homo sapiens) (UniProt P21453); assay: Agonist activity at human S1P1 receptor expressed in CHO cells assessed as inhibition of forskolin-stimulated cAMP formation pretreated at 1 uM for 1 hr measured after 5 hrs washout peroid; format: functional, cell-based

Sequence of Sphingosine 1-phosphate receptor 1 (Homo sapiens) (P21453 whole entry): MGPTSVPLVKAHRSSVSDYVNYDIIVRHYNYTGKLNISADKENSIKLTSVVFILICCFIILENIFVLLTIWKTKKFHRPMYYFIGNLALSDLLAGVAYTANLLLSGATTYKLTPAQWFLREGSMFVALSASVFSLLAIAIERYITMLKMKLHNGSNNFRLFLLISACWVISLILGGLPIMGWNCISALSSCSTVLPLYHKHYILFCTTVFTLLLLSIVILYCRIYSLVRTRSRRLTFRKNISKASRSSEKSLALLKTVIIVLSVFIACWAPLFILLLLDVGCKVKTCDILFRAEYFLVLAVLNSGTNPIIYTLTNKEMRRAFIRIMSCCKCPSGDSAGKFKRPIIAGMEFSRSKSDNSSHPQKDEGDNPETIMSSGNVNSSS

CCCCCCCCCCCCC/C=C/[C@@H](O)[C@@H](N)COP(=O)(O)O
active: inhibition [1] | inhibition [2] | Activity [3] | Activity [4] | inhibition [5]
